Laboratory results taken from PubChem BioAssay AID2060623 (Molecular Pharmacology Branch, DTP, NCI, 2025).

System: 227483-062-R1-J1-PDC complex spheroids with HUVEC/MSC, viability
Experiment: Anticancer human tumor 227483-062-R1-J1-PDC patient-derived pancreatic carcinoma cell line growth inhibition [CLK]
Conditions: for IC50: curve of first compound; for viability, T/C: stronger effect = lower value
Procedure, shortened: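 Patient-derived tumor cells grown as complex spheroids with HUVEC endothelial cells and mesenchymal stem cells, treated with drug combinations. Concentrations descend in half-log steps from near clinical Cmax, or from 10 microM if Cmax unknown.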

[1] = second compound 0.0316 µM, first compound 0.0316 µM
[2] = second compound 0.0316 µM, first compound 0.1 µM
[3] = second compound 0.0316 µM, first compound 0.316 µM
[4] = second compound 0.0316 µM, first compound 1 µM
[5] = second compound 0.0316 µM, first compound 3.16 µM
[6] = second compound 0.0316 µM, first compound 10 µM
[7] = second compound 0.1 µM, first compound 0.0316 µM
[8] = second compound 0.1 µM, first compound 0.1 µM
[9] = second compound 0.1 µM, first compound 0.316 µM
[10] = second compound 0.1 µM, first compound 1 µM
[11] = second compound 0.1 µM, first compound 3.16 µM
[12] = second compound 0.1 µM, first compound 10 µM
[13] = second compound 0.316 µM, first compound 0.0316 µM
[14] = second compound 0.316 µM, first compound 0.1 µM
[15] = second compound 0.316 µM, first compound 0.316 µM
[16] = second compound 0.316 µM, first compound 1 µM
[17] = second compound 0.316 µM, first compound 3.16 µM
[18] = second compound 0.316 µM, first compound 10 µM
[19] = second compound 1 µM, first compound 0.0316 µM
[20] = second compound 1 µM, first compound 0.1 µM
[21] = second compound 1 µM, first compound 0.316 µM
[22] = second compound 1 µM, first compound 1 µM
[23] = second compound 1 µM, first compound 3.16 µM
[24] = second compound 1 µM, first compound 10 µM
[25] = second compound 3.16 µM, first compound 0.0316 µM
[26] = second compound 3.16 µM, first compound 0.1 µM
[27] = second compound 3.16 µM, first compound 0.316 µM
[28] = second compound 3.16 µM, first compound 1 µM
[29] = second compound 3.16 µM, first compound 3.16 µM
[30] = second compound 3.16 µM, first compound 10 µM
[31] = second compound 10 µM, first compound 0.0316 µM
[32] = second compound 10 µM, first compound 0.1 µM
[33] = second compound 10 µM, first compound 0.316 µM
[34] = second compound 10 µM, first compound 1 µM
[35] = second compound 10 µM, first compound 3.16 µM
[36] = second compound 10 µM, first compound 10 µM
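Also: spheroids exposed to compounds for seven days before readout.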
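For viability, T/C in this document: percent of DMSO vehicle control luminescence as 100% viability.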

CC(=O)O[C@H]1C(=O)[C@@]2(C)[C@H]([C@H](OC(=O)c3ccccc3)[C@]3(O)C[C@H](OC(=O)[C@H](O)[C@@H](NC(=O)c4ccccc4)c4ccccc4)C(C)=C1C3(C)C)[C@]1(OC(C)=O)CO[C@@H]1C[C@@H]2O + CN1CCN(c2cc(C(=O)Nc3cc4cc(-c5cnn(C)c5)ccc4cn3)ccn2)CC1
IC50 (second compound 0.0316 µM): < 0.0316 µM | IC50 (second compound 0.1 µM): < 0.0316 µM | IC50 (second compound 0.316 µM): < 0.0316 µM | IC50 (second compound 1 µM): < 0.0316 µM | IC50 (second compound 3.16 µM): < 0.0316 µM | IC50 (second compound 10 µM): < 0.0316 µM | viability, T/C [1]: 27.4% | viability, T/C [2]: 22.2% | viability, T/C [3]: 31.2% | viability, T/C [4]: 31.4% | viability, T/C [5]: 36.9% | viability, T/C [6]: 43.8% | viability, T/C [7]: 28.6% | viability, T/C [8]: 32.8% | viability, T/C [9]: 35% | viability, T/C [10]: 38% | viability, T/C [11]: 40.7% | viability, T/C [12]: 40.6% | viability, T/C [13]: 2.61% | viability, T/C [14]: 6.66% | viability, T/C [15]: 2.59% | viability, T/C [16]: 4.5% | viability, T/C [17]: 5.51% | viability, T/C [18]: 6.7% | viability, T/C [19]: 1.8% | viability, T/C [20]: 2.26% | viability, T/C [21]: 3.26% | viability, T/C [22]: 4% | viability, T/C [23]: 1.87% | viability, T/C [24]: 2.01% | viability, T/C [25]: 7.44% | viability, T/C [26]: 3.02% | viability, T/C [27]: 3.51% | viability, T/C [28]: 2.58% | viability, T/C [29]: 5.48% | viability, T/C [30]: 4.46% | viability, T/C [31]: 1.55% | viability, T/C [32]: 1.61% | viability, T/C [33]: 1.94% | viability, T/C [34]: 1.68% | viability, T/C [35]: 1.56% | viability, T/C [36]: 1.39%

CCc1c2c(nc3ccc(O)cc13)-c1cc3c(c(=O)n1C2)COC(=O)[C@]3(O)CC + CN1CCN(c2cc(C(=O)Nc3cc4cc(-c5cnn(C)c5)ccc4cn3)ccn2)CC1
IC50 (second compound 0.0316 µM): 0.276 µM | IC50 (second compound 0.1 µM): 0.0129 µM | IC50 (second compound 0.316 µM): < 0.00316 µM | IC50 (second compound 1 µM): < 0.00316 µM | IC50 (second compound 3.16 µM): < 0.00316 µM | IC50 (second compound 10 µM): < 0.00316 µM | viability, T/C (second compound 0.0316 µM, first compound 0.00316 µM): 96.7% | viability, T/C (second compound 0.0316 µM, first compound 0.01 µM): 99% | viability, T/C [1]: 74.9% | viability, T/C [2]: 62% | viability, T/C [3]: 52.1% | viability, T/C [4]: 32.5% | viability, T/C (second compound 0.1 µM, first compound 0.00316 µM): 58.4% | viability, T/C (second compound 0.1 µM, first compound 0.01 µM): 53.1% | viability, T/C [7]: 38.7% | viability, T/C [8]: 38.1% | viability, T/C [9]: 25.4% | viability, T/C [10]: 8.95% | viability, T/C (second compound 0.316 µM, first compound 0.00316 µM): 3.53% | viability, T/C (second compound 0.316 µM, first compound 0.01 µM): 4.77% | viability, T/C [13]: 3.57% | viability, T/C [14]: 4.05% | viability, T/C [15]: 1.85% | viability, T/C [16]: 0.98% | viability, T/C (second compound 1 µM, first compound 0.00316 µM): 1.32% | viability, T/C (second compound 1 µM, first compound 0.01 µM): 1.1% | viability, T/C [19]: 1.61% | viability, T/C [20]: 1.38% | viability, T/C [21]: 2.57% | viability, T/C [22]: 2.01% | viability, T/C (second compound 3.16 µM, first compound 0.00316 µM): 4.99% | viability, T/C (second compound 3.16 µM, first compound 0.01 µM): 2.04% | viability, T/C [25]: 2.02% | viability, T/C [26]: 2.48% | viability, T/C [27]: 5.26% | viability, T/C [28]: 2.04% | viability, T/C (second compound 10 µM, first compound 0.00316 µM): 1.98% | viability, T/C (second compound 10 µM, first compound 0.01 µM): 1.03% | viability, T/C [31]: 0.86% | viability, T/C [32]: 2.28% | viability, T/C [33]: 0.94% | viability, T/C [34]: 0.92%

COc1cccc2c1C(=O)c1c(O)c3c(c(O)c1C2=O)CC(O)(C(=O)CO)CC3OC1CC(N)C(O)C(C)O1 (stereo unspecified) + CN1CCN(c2cc(C(=O)Nc3cc4cc(-c5cnn(C)c5)ccc4cn3)ccn2)CC1
IC50 (second compound 0.0316 µM): 0.18 µM | IC50 (second compound 0.1 µM): 0.0734 µM | IC50 (second compound 0.316 µM): < 0.0316 µM | IC50 (second compound 1 µM): < 0.0316 µM | IC50 (second compound 3.16 µM): < 0.0316 µM | IC50 (second compound 10 µM): < 0.0316 µM | viability, T/C [1]: 84.1% | viability, T/C [2]: 68% | viability, T/C [3]: 32.8% | viability, T/C [4]: 12.8% | viability, T/C [5]: 2.47% | viability, T/C [6]: 10.4% | viability, T/C [7]: 64.5% | viability, T/C [8]: 44.6% | viability, T/C [9]: 17.3% | viability, T/C [10]: 8.44% | viability, T/C [11]: 2.6% | viability, T/C [12]: 10.8% | viability, T/C [13]: 5.51% | viability, T/C [14]: 5.14% | viability, T/C [15]: 1.16% | viability, T/C [16]: 1.51% | viability, T/C [17]: 3.05% | viability, T/C [18]: 9.1% | viability, T/C [19]: 1.69% | viability, T/C [20]: 1.91% | viability, T/C [21]: 2.92% | viability, T/C [22]: 4.33% | viability, T/C [23]: 3.24% | viability, T/C [24]: 11% | viability, T/C [25]: 5.16% | viability, T/C [26]: 2.78% | viability, T/C [27]: 2.53% | viability, T/C [28]: 3.22% | viability, T/C [29]: 3.62% | viability, T/C [30]: 7.06% | viability, T/C [31]: 3.68% | viability, T/C [32]: 1.75% | viability, T/C [33]: 1.37% | viability, T/C [34]: 1.43% | viability, T/C [35]: 1.53% | viability, T/C [36]: 1.26%
